In patent US8426462B2, “Ferrocene derivatives with anticancer activity” (Centre National de la Recherche Scientifique (CNRS), priority 2008, dated 2013):

Legend:
[1] = system: MDA-MB-231 cells (non-hormone-dependent breast cancer cells); settings: read-out: Antiproliferative effect (IC50)
Protocol: (§1) The antiproliferative effects of compounds of the invention were tested on MDA-MB-231 cells, which are non-hormone-dependent breast cancer cells, on PC-3 cells, which are non-hormone-dependent prostate cancer cells and on MCF-7 cells, which are hormone-dependent breast cancer cells.
(§2) The experimental method used for this test is described in Hillard E. A. et al. Chem. Med. Chem. 2006, 1, 551-559.

[2] = system: PC-3 cells (non-hormone-dependent prostate cancer cells); settings: read-out: Antiproliferative effect (IC50)
Protocol: as §1, §2

[3] = system: MCF-7 cells (hormone-dependent breast cancer cells containing ERα); test: Proliferative/antiproliferative effect on MCF-7 cells; assay type: cell-based; settings: for proliferative effect based on the control: MCF-7, without phenol red, 10^−8M; for IC50: MCF-7, approximate, estrogen effect plus cytotoxic activity, read-out: IC50 on MCF-7 line (converted)
Source text: The purely cytotoxic effect appears at higher concentrations where the resultant of the two components (estrogen effect plus cytotoxic activity) is therefore evidenced. It is thus difficult to achieve very accurate IC50 values for the MCF-7 line.

| Molecule | IC50 [1] | IC50 [2] | proliferative effect based on the control [3] | IC50 [3] |
| --- | --- | --- | --- | --- |
| 1,1′-[1-[1,1-bis(4-hydroxyphenyl)methylidene]-2-methyltrimethylene]ferrocene [Compound 11] | 630 nM | – | – | – |
| 1,1′-[1-[1,1-bis(4-hydroxyphenyl)methylidene]trimethylene]ferrocene [Compound 4] | 80 nM | 940 nM | 162% | ~4000 nM |
| 1,1′-[1-[(4-hydroxyphenyl)(phenyl)-methylidene]trimethylene]ferrocene [Compound 12] | 470 nM | – | – | – |
| 1,1′-[2-[1,1-bis(4-hydroxyphenyl)methylidene]trimethylene]ferrocene [Compound 5] | 960 nM | 1080 nM | – | ~1000 nM |
| 1,2-[1-[1,1-bis(4-hydroxyphenyl)methylidene]tetramethylene]-ferrocene [Compound 9] | 500 nM | – | – | – |
| 1,2-[1-[1,1-bis(4-hydroxyphenyl)methylidene]trimethylene]ferrocene [Compound 8] | 2700 nM | – | – | – |
| C[C@]12CC[C@@H]3c4ccc(O)cc4CC[C@H]3[C@@H]1CC[C@@H]2O [estradiol, reference compound] | – | – | 264% | – |
| (R)-1,1′-[1-[1,1-bis(4-hydroxyphenyl)methylidene]-3-methyltrimethylene]ferrocene [Compound 7] | 780 nM | – | – | – |
| (S)-1,1′-[1-[1,1-bis(4-hydroxyphenyl)methylidene]-3-methyltrimethylene]ferrocene [Compound 6] | 2700 nM | – | – | – |
